From patent US11603387B2, “SOCS mimetics for the treatment of diseases” (UNIVERSITY OF FLORIDA RESEARCH FOUNDATION, INC., priority 2014, dated 2023)

Tests used:
[1] = system: SOCS1+/+ or SOCS1+/− CD4+CD25− T cells; assay: CD4+ T cell activation (CD25 expressing cells, flow cytometry) after αCD3 stimulation; type: cell-based, mouse; details: αCD3 + SOCS1-KIR peptide (20 μM), 72 h
Protocol: FIGS. 5A-5D. […] (FIGS. 5A and 5B) SOCS1^+/+ or SOCS1^+/− CD4^+CD25^− T cells were stimulated with αCD3 antibodies alone or with αCD3+SOCS1-KIR peptide (20 μM) for 72 h. (FIG. 5A) CD25 expressing cells were assessed by flow cytometry. Results are representative of 4 independent experiments. (FIG. 5B) Proliferation was assessed by CFSE labeling and flow cytometry, cell counts, and ^3[H] thymidine incorporation. n=4. (FIGS. 5C and 5D) SOCS1^+/+ or SOCS1^+/− CD4^+CD25^− T cells were placed under Th17 inducing conditions in the absence or presence of SOCS1-KIR peptide (20 μM) (FIG. 5C) IFNγ expression, relative to β-actin., was assessed by qPCR (left) and ELISA (right) (n=4). (FIG. 5D) pSTAT1 and STAT1 protein expressions were assessed by western blotting. […]
CD4^+ T cell proliferation was assessed by CFSE staining, ^3H thymidine incorporation, and absolute cell counts. […] After 72 h of incubation, cell cultures were either pulsed with 0.5 mCi ^3H thymidine (GE Healthcare; Arlington Heights, Ill.) or counted and harvested for assessment by flow cytometry. In cultures analyzed by flow cytometry, T lymphocytes were labeled with 10 μg/ml CFSE prior to culture as previously described (Cozzo et al. 2003). ^3H thymidine pulsed T lymphocytes were harvested 16-18 hours after initial pulse followed by the ^3H thymidine incorporation assessment using a Beckman LS3801 Liquid Scintillation System. […]

JAK2 = JAK2 (Homo sapiens, UniProt O60674); assay: Binding to the activation loop of JAK2
JAK2, sequence (O60674 whole entry, species assumed): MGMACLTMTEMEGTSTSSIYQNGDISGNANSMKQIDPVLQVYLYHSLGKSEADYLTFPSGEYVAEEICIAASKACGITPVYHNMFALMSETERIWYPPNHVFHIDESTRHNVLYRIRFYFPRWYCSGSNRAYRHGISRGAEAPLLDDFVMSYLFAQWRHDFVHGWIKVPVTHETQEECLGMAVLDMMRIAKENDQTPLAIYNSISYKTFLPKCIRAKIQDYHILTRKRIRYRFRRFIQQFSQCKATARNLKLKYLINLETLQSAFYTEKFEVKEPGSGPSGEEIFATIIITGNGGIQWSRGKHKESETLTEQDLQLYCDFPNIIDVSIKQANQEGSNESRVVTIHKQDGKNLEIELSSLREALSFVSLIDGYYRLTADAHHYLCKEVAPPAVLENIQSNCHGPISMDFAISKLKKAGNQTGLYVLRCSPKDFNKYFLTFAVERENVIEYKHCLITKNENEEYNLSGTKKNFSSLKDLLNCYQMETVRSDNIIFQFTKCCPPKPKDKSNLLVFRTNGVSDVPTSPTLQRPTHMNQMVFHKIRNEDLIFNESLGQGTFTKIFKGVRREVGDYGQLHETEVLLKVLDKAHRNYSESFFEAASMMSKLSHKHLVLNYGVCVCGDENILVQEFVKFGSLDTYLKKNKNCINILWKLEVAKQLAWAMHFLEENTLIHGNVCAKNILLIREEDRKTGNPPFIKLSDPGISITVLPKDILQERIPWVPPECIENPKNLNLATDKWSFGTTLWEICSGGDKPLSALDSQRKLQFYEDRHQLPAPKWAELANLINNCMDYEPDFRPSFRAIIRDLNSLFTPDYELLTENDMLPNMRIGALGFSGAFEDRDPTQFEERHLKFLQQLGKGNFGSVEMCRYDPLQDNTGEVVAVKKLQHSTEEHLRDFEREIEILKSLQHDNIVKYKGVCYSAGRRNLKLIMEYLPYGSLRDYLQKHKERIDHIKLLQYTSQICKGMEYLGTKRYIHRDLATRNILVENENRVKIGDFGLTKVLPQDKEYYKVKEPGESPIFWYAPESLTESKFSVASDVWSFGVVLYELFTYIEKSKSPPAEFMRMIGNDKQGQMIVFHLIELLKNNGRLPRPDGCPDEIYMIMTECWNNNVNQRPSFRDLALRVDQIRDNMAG

SOCS1−/− mice = assay: Lethal perinatal auto-inflammatory disease in SOCS1−/− mice; type: in vivo, mouse; details: peptide combined with CD4 T cells
From the text: FIGS. 15A-15F. SOCS1-KIR inhibition of lethal inflammatory pathology in SOCS1−/− mice is correlated to enhanced regulatory T cell homeostasis. (FIG. 15A) Kaplan Meier curve showing survival of SOCS1^−/− (black square; n=7) or CD4^+/SOCS1-KIR treatment (purple triangles, n=12). Numbers of mice in each group are indicated in parentheses. Mice were euthanized when moribund with survival comparisons by Mantel-Cox. Statistical significance denoted by asterisks. (FIG. 15B) Photographs of H & E stains depicting heart and liver tissues of 2 week old SOCS1^−/−, SOCS1^−/− mice receiving dual treatments, or littermate control mice. Photographs shown of H & E stained liver and heart of untreated SOCS1^−/− (N=8) and WT (N=7) mice are representative of 100% of samples analyzed. Photographs shown of H & E stained liver and heart of SOCS1^−/− mice receiving combined treatments are representative of 2 out of 5 mice in regard to heart samples and 1 out of 5 mice in regards to liver tissue. (FIG. 15C) Graph showing average daily weights of SOCS1^−/− mice untreated (n=16), CD4^+/SOCS1-KIR treatment (n=12), or WT littermate controls (n=9) over a two week period. (FIG. 15D) Photographs of 2 week old SOCS1^−/− mice, SOCS1^−/− mice receiving dual treatment, and WT littermate controls. (FIG. 15E) Graphs showing IFNg levels within the sera of 2 week old WT (n=7) or SOCS1^−/− mice with (n=8) and without (n=10) CD4^+/SOCS1-KIR treatment, measured by ELISA. (FIG. 15F) Graphs showing absolute numbers of CD4^+Foxp3^+ lymphocytes present in two week old SOCS1^−/− and WT littermate control mice with or without CD4^+/SOCS1-KIR treatment and WT 6-8 week old adult mice. Each dot is representative of an individual mouse with averages denoted by lines. Statistics were performed using unpaired, two-tailed t test comparing treated SOCS1^−/− to untreated SOCS1^−/− 2 wk. Statistical significance is denoted by asterisks. *, p≤0.05; **, p 0≤0.005; ***, p≤0.0005.

**Q.** How did the “αCD3 mediated CD25 up-regulation” value ([1]; SOCS1+/− CD4+ T lymphocytes) turn out when “DTHFRTFRSHSDYRRI (SOCS1-KIR peptide) [SOCS1 mimetic peptide corresponding to the KIR region of SOCS1]” was run?
**A.** sufficient to inhibit excessive αCD3 mediated CD25 up-regulation

**Q.** What about the CD25 expression ([1]; WT (SOCS1+/+) CD4+ T lymphocytes) of the same sequence?
**A.** limited effects on CD25 expression

**Q.** And the “Binding to and inhibition of JAK2” value (JAK2)?
**A.** binds to and inhibits the function of JAK2

**Q.** And the “Peripheral Foxp3+CD4+ Tregs” value (SOCS1−/− mice; 2 week old SOCS1−/− mice)?
**A.** enhanced peripheral homeostasis of Foxp3+CD4+ Tregs

**Q.** What about the “Leukocytic infiltration into heart and liver” value (SOCS1−/− mice; SOCS1−/− mice) of the same sequence?
**A.** prevent/delay leukocytic infiltration into heart and liver

**Q.** What about the “Quality of life (size and overall health)” value (SOCS1−/− mice; SOCS1−/− mice) of the same sequence?
**A.** improve the quality of life (size and overall health improvement)

**Q.** What about the Survival (SOCS1−/− mice; SOCS1−/− mice) of the same sequence?
**A.** could extend the life
